This passage reports IC50 and EC50 results from patent US20240383891A1, “BENZIMIDAZOLE AND RELATED ANALOGS FOR INHIBITING YAP/TAZ-TEAD” (SpringWorks Therapeutics, Inc., priority 2023, published 2024).

A value given as a limit tells only on which side of the number the result lay.

Assay type in all cases: cell-based
Experiment [1] relates to YAP/TAZ-TEAD transcription. The experiment is described as follows: reporter gene assay for measuring the inhibition of YAP/TAZ-TEAD transcription (TEAD-responsive element luciferase reporter in Hek293T cells). Conditions: Homo sapiens, HEK-293T; Hek293T cells transiently transfected with TEAD-responsive element luciferase reporter, 24 hours incubation. As for the experimental part: Example 21: Activity of compounds of the disclosure in a reporter gene assay for measuring the inhibition of YAP/TAZ-TEAD transcription Hek293T cells are cultured in DMEM supplemented with 10% fetal bovine serum, Sodium pyruvate, Sodium bicarbonate, L-glutamine. The cells are harvested and transiently transfected with TEAD-responsive element luciferase reporter. Transfected cells are plated in 384-well plate containing pre-diluted compounds. After 24 hours incubation at 37° C./5% CO2, assay plates were cooled to room temperature and levelled to an equal volume per well, prior to the addition of 25 uL luciferase substrate SteadyLite (Perkin Elmer)/well. The plate was shaken for 10 min at 600 rpm, centrifuged for 1 min at 500 rpm and measured with an Envision reader (PerkinElmer). The amount of relative light units produced by the TEAD reporter is used to calculate the percentage of inhibition. The percent of reporter inhibition was calculated in the presence of a positive control inhibitor (100% inhibition) versus a condition with the presence of the vehicle basal activity of the reporter (0% inhibition). The ability of a test compound to inhibit this activity was determined as: Percentage inhibition=[[…]((RLU determined in the presence of vehicle—RLU determined for sample with test compound present) divided by (RLU determined in the presence of vehicle—RLU determined for sample with positive control inhibitor))] *100.
The activities of example compounds tested are depicted in Table 3. The activity ranges A, B and C refer to IC50 values in the reporter gene assay as follows: “A”: IC50<1 μM; “B”: 1 μM≤IC50 10 μM and “C”: IC50>10 μM; NT=not tested.
(In general: A reporter such as luciferase makes a cellular process visible.)

The test system of another experiment is NCI-H2052. The experiment is described as follows: mesothelioma cell line proliferation assay, NCI-H2052. To be noted: Homo sapiens, 144 h; NCI-H2052 mesothelioma cells, 6 days incubation, ATPlite cell viability. As for the experimental part: (§1) Mesothelioma cell lines, NCI-H226 and NCI-H2052 (both sourced from the ATCC cell culture collection) are plated in 96-well plates (Corning® 96 Well White Polystyrene Microplate clear flat bottom, white polystyrene (TC-Treated)), at 1500 cells/well in full medium (RPMI 1640 ATCC modification with L-glutamine, HEPES, Phenol Red, Sodium Pyruvate, High glucose, Low sodium bicarbonate and 10% fetal bovine serum). Cells are incubated overnight at 37° C. in an incubator with 5% CO2. Then compounds, dissolved in DMSO, are added in dose-response. Cells are incubated with compound dilutions for another 6 days at 37° C. in an incubator with 5% CO2. Cell viability is quantitated using the ATPlite kit (Perkin-Elmer) and the luminescence is read-out using an Envision instrument (Perkin-Elmer). The amount of relative light units produced using the ATPlite kit is used to calculate percent of inhibition. The activities of some example compounds are depicted in Table 4. The activity ranges A, B and C refer to EC50 values in the mesothelioma cell line proliferation assay as described as follows: “A”: EC50<1 μM; “B”: 1 μM s […] and “C”: EC50>10 μM; NT: not tested.
(In general: Cellular ATP, detected with luciferase, serves as a proxy for viable cell number.)

The subject of a further experiment is NCI-H226. The experiment is described as follows: mesothelioma cell line proliferation assay, NCI-H226. Conditions: Homo sapiens, 144 h; NCI-H226 mesothelioma cells, 6 days incubation, ATPlite cell viability. The method, then: as §1

With `O=C(O)[C@H]1C[C@H]1c1nc(-c2ccc(C(F)(F)F)cc2)c2ccccn12` (racemic) [Cpd. No. 018, cis-2-(1-(4-(trifluoromethyl)phenyl)imidazo[1,5-a]pyridin-3-yl)cyclopropane-1-carboxylic acid], the 50% inhibitory concentration (IC50) in experiment [1] was > 10 µM. Still for that read-out and setting: with `O=C(O)[C@@H]1C[C@H]1c1nc(-c2ccc(C(F)(F)F)cc2)c2ccccn12` (relative stereo) [Cpd. No. 012, trans-2-(1-(4-(trifluoromethyl)phenyl)imidazo[1,5-a]pyridin-3-yl)cyclopropane-1-carboxylic acid] the figure was < 1 µM. Consider `C=CC(=O)NCc1nc(-c2ccc(C(F)(F)F)cc2)n2ccccc12` [Cpd. No. 001, N-((3-(4-(trifluoromethyl)phenyl)imidazo[1,5-a]pyridin-1-yl)methyl)acrylamide], for which the EC50 in the experiment on NCI-H2052 and in the experiment on NCI-H226 was < 1 µM each time. Also, the IC50 in experiment [1] is < 1 µM.

As for `C=CC(=O)NCc1nc(-c2ccc(C(F)(F)F)cc2)c2ccccn12` [Cpd. No. 002, N-((1-(4-(trifluoromethyl)phenyl)imidazo[1,5-a]pyridin-3-yl)methyl)acrylamide], the concentration for a half-maximal effect (EC50) with NCI-H2052 and in the experiment on NCI-H226 was < 1 µM in each case. The IC50 in experiment [1] is < 1 µM. Regarding `CCC(=O)NCc1nc(-c2ccc(C(F)(F)F)cc2)c2ccccn12` [Cpd. No. 003, N-((1-(4-(trifluoromethyl)phenyl)imidazo[1,5-a]pyridin-3-yl)methyl)propionamide], in experiment [1], the half-maximal inhibitory concentration (IC50) is > 10 µM. Take `CS(=O)(=O)NCc1nc(-c2ccc(C(F)(F)F)cc2)c2ccccn12` [Cpd. No. 004, N-((1-(4-(trifluoromethyl)phenyl)imidazo[1,5-a]pyridin-3-yl)methyl)methanesulfonamide]: the half-inhibitory concentration (IC50) in experiment [1] was > 10 µM. Consider `CCC(=O)NCc1nc(-c2ccc(C(F)(F)F)cc2)n2ccccc12` [Cpd. No. 005, N-((3-(4-(trifluoromethyl)phenyl)imidazo[1,5-a]pyridin-1-yl)methyl)propionamide], for which the IC50 in experiment [1] is > 10 µM.

As to `CS(=O)(=O)NCc1nc(-c2ccc(C(F)(F)F)cc2)n2ccccc12` [Cpd. No. 006, N-((3-(4-(trifluoromethyl)phenyl)imidazo[1,5-a]pyridin-1-yl)methyl)methanesulfonamide], the IC50 in experiment [1] fell in the range of 1 to 10 µM. On to `O=C(O)/C=C/c1nc(-c2ccc(C(F)(F)F)cc2)n2ccccc12` [Cpd. No. 007, (E)-3-(3-(4-(trifluoromethyl)phenyl)imidazo[1,5-a]pyridin-1-yl)acrylic acid], for which, in experiment [1], the IC50 is < 1 µM. As to `O=C(O)/C=C/c1nc(-c2ccc(C(F)(F)F)cc2)c2ccccn12` [Cpd. No. 008, (E)-3-(1-(4-(trifluoromethyl)phenyl)imidazo[1,5-a]pyridin-3-yl)acrylic acid], the EC50 in the experiment with NCI-H2052 and with NCI-H226 was < 1 µM in each case. Further, the half-inhibitory concentration (IC50) in experiment [1] was < 1 µM. For `C=CC(=O)NCc1nc(-c2ccc(C(F)(F)F)cc2)n2cc(C(F)(F)F)ccc12` [Cpd. No. 009, N-((6-(trifluoromethyl)-3-(4-(trifluoromethyl)phenyl)imidazo[1,5-a]pyridin-1-yl)methyl)acrylamide], the concentration giving a half-maximal response (EC50) in the experiment on NCI-H2052 and with NCI-H226 was < 1 µM throughout. Moreover, in experiment [1], the IC50 was < 1 µM. Take `CC(=O)NCc1nc(-c2ccc(C(F)(F)F)cc2)n2cc(C(F)(F)F)ccc12` [Cpd. No. 010, N-((6-(trifluoromethyl)-3-(4-(trifluoromethyl)phenyl)imidazo[1,5-a]pyridin-1-yl)methyl)acetamide]: in experiment [1], the IC50 is > 10 µM.

For `CS(=O)(=O)NCc1nc(-c2ccc(C(F)(F)F)cc2)n2cc(C(F)(F)F)ccc12` [Cpd. No. 011, N-((6-(trifluoromethyl)-3-(4-(trifluoromethyl)phenyl)imidazo[1,5-a]pyridin-1-yl)methyl)methanesulfonamide], in experiment [1], the half-inhibitory concentration (IC50) was > 10 µM. Same read-out and setting: the same measure for `O=Cc1ccc(-c2nc(-c3ccc(C(F)(F)F)cc3)c3ccccn23)cc1O` [Cpd. No. 013, 2-hydroxy-4-(1-(4-(trifluoromethyl)phenyl)imidazo[1,5-a]pyridin-3-yl)benzaldehyde]: < 1 µM; for `O=C(O)C1CC(O)(c2nc(-c3ccc(C(F)(F)F)cc3)c3ccccn23)C1` (stereo not shown) [Cpd. No. 014, 3-hydroxy-3-(1-(4-(trifluoromethyl)phenyl)imidazo[1,5-a]pyridin-3-yl)cyclobutane-1-carboxylic acid]: > 10 µM; for `O=C(O)Cc1nc(-c2ccc(C(F)(F)F)cc2)c2ccccn12` [Cpd. No. 015, 2-(1-(4-(trifluoromethyl)phenyl)imidazo[1,5-a]pyridin-3-yl)acetic acid]: > 10 µM. Regarding `O=C(O)C1CCN1c1nc(-c2ccc(C(F)(F)F)cc2)c2ccccn12` (stereo not shown) [Cpd. No. 016, 1-(1-(4-(trifluoromethyl)phenyl)imidazo[1,5-a]pyridin-3-yl)azetidine-2-carboxylic acid], the 50% inhibitory concentration (IC50) in experiment [1] is > 10 µM. As to `O=C(O)C1CN(c2nc(-c3ccc(C(F)(F)F)cc3)c3ccccn23)C1` [Cpd. No. 017, 1-(1-(4-(trifluoromethyl)phenyl)imidazo[1,5-a]pyridin-3-yl)azetidine-3-carboxylic acid], the IC50 in experiment [1] is > 10 µM.

Take `O=C(O)[C@H]1C[C@@H](c2nc(-c3ccc(C(F)(F)F)cc3)c3ccccn32)C1` [Cpd. No. 019, cis-3-(1-(4-(trifluoromethyl)phenyl)imidazo[1,5-a]pyridin-3-yl)cyclobutane-1-carboxylic acid]: the concentration for half-maximal inhibition (IC50) in experiment [1] is > 10 µM.

For `O=C(O)[C@H]1C[C@H](c2nc(-c3ccc(C(F)(F)F)cc3)c3ccccn32)C1` [Cpd. No. 020, trans-3-(1-(4-(trifluoromethyl)phenyl)imidazo[1,5-a]pyridin-3-yl)cyclobutane-1-carboxylic acid], the concentration for half-maximal inhibition (IC50) in experiment [1] was < 1 µM.

Consider `O=C(O)CNc1nc(-c2ccc(C(F)(F)F)cc2)c2ccccn12` [Cpd. No. 021, (1-(4-(trifluoromethyl)phenyl)imidazo[1,5-a]pyridin-3-yl)glycine], for which, in experiment [1], the concentration for half-maximal inhibition (IC50) was > 10 µM. In the case of `O=C(O)/C=C/c1nc(-c2ccc(C(F)(F)F)cc2)c2ccc(C(F)(F)F)cn12` [Cpd. No. 022, (E)-3-(6-(trifluoromethyl)-1-(4-(trifluoromethyl)phenyl)imidazo[1,5-a]pyridin-3-yl)acrylic acid], the EC50 with NCI-H2052 and in the experiment with NCI-H226 was < 1 µM in each case. Further, the half-maximal inhibitory concentration (IC50) in experiment [1] is < 1 µM.

Turning to `O=C(O)CCc1nc(-c2ccc(C(F)(F)F)cc2)c2ccccn12` [Cpd. No. 023, 3-(1-(4-(trifluoromethyl)phenyl)imidazo[1,5-a]pyridin-3-yl)propanoic acid], the IC50 in experiment [1] is < 1 µM. In turn, `CN(CC(=O)O)c1nc(-c2ccc(C(F)(F)F)cc2)c2ccccn12` [Cpd. No. 024, N-methyl-N-(1-(4-(trifluoromethyl)phenyl)imidazo[1,5-a]pyridin-3-yl)glycine] yielded an IC50 in experiment [1] of 1 to 10 µM. `O=c1[nH]nc(-c2nc(-c3ccc(C(F)(F)F)cc3)c3ccccn23)o1` [Cpd. No. 025, 5-(1-(4-(trifluoromethyl)phenyl)imidazo[1,5-a]pyridin-3-yl)-1,3,4-oxadiazol-2(3H)-one]: the EC50 in the experiment with NCI-H2052 and with NCI-H226 was < 1 µM in each case. Besides, the concentration for half-maximal inhibition (IC50) in experiment [1] is < 1 µM. For the molecule `O=c1[nH]c(-c2nc(-c3ccc(C(F)(F)F)cc3)c3ccccn23)no1` [Cpd. No. 028, 3-(1-(4-(trifluoromethyl)phenyl)imidazo[1,5-a]pyridin-3-yl)-1,2,4-oxadiazol-5(4H)-one], the IC50 in experiment [1] was < 1 µM.

In turn, `O=c1[nH]nc(-c2nc(-c3ccc(C(F)(F)F)cc3)c3ccccn23)[nH]1` [Cpd. No. 029, 5-(1-(4-(trifluoromethyl)phenyl)imidazo[1,5-a]pyridin-3-yl)-2,4-dihydro-3H-1,2,4-triazol-3-one] showed an IC50 in experiment [1] of 1 to 10 µM.

Turning to `O=C1CC(c2nc(-c3ccc(C(F)(F)F)cc3)c3ccccn23)=NO1` [Cpd. No. 030, 3-(1-(4-(trifluoromethyl)phenyl)imidazo[1,5-a]pyridin-3-yl)isoxazol-5(4H)-one], the IC50 in experiment [1] was in the range of 1 to 10 µM.

Broadly, the IC50 is the concentration needed to halve the response being measured. A higher IC50 goes with weaker potency in that assay. The EC50 is the concentration at which the effect is half-maximal.
